Results from patent publication US20140107100A1, “Benzoxazepines as Inhibitors of PI3K/mTOR and Methods of Their Use and Manufacture” (EXELIXIS, INC., priority 2010, published 2014).

Biological target: mTOR/GbL/Raptor (mTORC1) (Homo sapiens, UniProt P42345)
Assay: mTOR/GbL/Raptor (mTORC1) ELISA assay, phosphorylation of 4E-BP1
Assay type: biochemical
Details: 0.2 nM mTORC1, 40 uM ATP, 50 nM NHis-tagged 4E-BP1, 120 minutes; read-out: IC50 in this assay (mTORC1 ELISA)
Method in brief: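 Phospho-4E-BP1 was quantified by luminescent ELISA (anti-phospho-4E-BP1 IgG, HRP-tagged secondary) after capture of the His-tagged substrate on Ni-chelate plates.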

Compound	IC50
COc1ncc(-c2cc(C)c3c(c2)CN(c2nc(N)nc(C)c2C(C)C)CCO3)cn1 [Compound 82, 4-methyl-5-(1-methylethyl)-6-{9-methyl-7-[2-(methyloxy)pyrimidin-5-yl]-2,3-dihydro-1,4-benzoxazepin-4(5H)-yl}pyrimidin-2-amine]	100 to 500 nM
Cc1cc(-c2cnc3sc(N)nc3c2)cc2c1OCCN(c1nc(N)c(C#N)c(C)c1C#N)C2 [Compound 57, 2-amino-6-[7-(2-amino[1,3]thiazolo[5,4-b]pyridin-6-yl)-9-methyl-2,3-dihydro-1,4-benzoxazepin-4(5H)-yl]-4-methylpyridine-3,5-dicarbonitrile]	≤ 100 nM
Cc1cc(-c2cnc3sc(N)nc3c2)cc2c1OCCN(c1nc(S(C)(=O)=O)nc(C)c1C(C)C)C2 [Compound 86, 6-{9-methyl-4-[6-methyl-5-(1-methylethyl)-2-(methylsulfonyl)pyrimidin-4-yl]-2,3,4,5-tetrahydro-1,4-benzoxazepin-7-yl}[1,3]thiazolo[5,4-b]pyridin-2-amine]	≤ 100 nM
Cc1cc(-c2cnc3sc(N)nc3c2)cc2c1OCCN(c1nc(N)c(C#N)cc1C#N)C2 [Compound 32, 2-amino-6-[7-(2-amino[1,3]thiazolo[5,4-b]pyridin-6-yl)-9-methyl-2,3-dihydro-1,4-benzoxazepin-4(5H)-yl]pyridine-3,5-dicarbonitrile]	≤ 100 nM
CCc1cnc(CN(C)C)nc1N1CCOc2c(C)cc(-c3cnc4sc(N)nc4c3)cc2C1 [Compound 66, 6-(4-{2-[(dimethylamino)methyl]-5-ethylpyrimidin-4-yl}-9-methyl-2,3,4,5-tetrahydro-1,4-benzoxazepin-7-yl)[1,3]thiazolo[5,4-b]pyridin-2-amine]	≤ 100 nM
Cc1cc(-c2cnc3sc(N)nc3c2)cc2c1OCCN(c1nc(N)ccc1C#N)C2 [Compound 55, 6-amino-2-[7-(2-amino[1,3]thiazolo[5,4-b]pyridin-6-yl)-9-methyl-2,3-dihydro-1,4-benzoxazepin-4(5H)-yl]pyridine-3-carbonitrile]	≤ 100 nM
Cc1cc(-c2cnc3sc(N)nc3c2)cc2c1OCCN(c1nc(N)nc(C)c1C(C)C)C2 [Compound 3, 6-{4-[2-amino-6-methyl-5-(1-methylethyl)pyrimidin-4-yl]-9-methyl-2,3,4,5-tetrahydro-1,4-benzoxazepin-7-yl}[1,3]thiazolo[5,4-b]pyridin-2-amine]	≤ 100 nM
Cc1nc2ccc(-c3cc(C)c4c(c3)CN(c3nc(CN(C)C)nc(C)c3C(C)C)CCO4)cc2[nH]1 [Compound 45, N,N-dimethyl-1-{4-methyl-5-(1-methylethyl)-6-[9-methyl-7-(2-methyl-1H-benzimidazol-6-yl)-2,3-dihydro-1,4-benzoxazepin-4(5H)-yl]pyrimidin-2-yl}methanamine]	100 to 500 nM
Cc1cc(-c2cnc3sc(N)nc3c2)cc2c1OCCN(c1nc(C3CCCN3C)nc(C)c1C(C)C)C2 (stereo not shown) [Compound 149, 6-{9-methyl-4-[6-methyl-5-(1-methylethyl)-2-(1-methylpyrrolidin-2-yl)pyrimidin-4-yl]-2,3,4,5-tetrahydro-1,4-benzoxazepin-7-yl}[1,3]thiazolo[5,4-b]pyridin-2-amine]	≤ 100 nM
Cc1cc(-c2cnc3sc(N)nc3c2)cc2c1OCCN(c1nc(N)nc(Cl)c1C(C)C)C2 [Compound 62, 6-{4-[2-amino-6-chloro-5-(1-methylethyl)pyrimidin-4-yl]-9-methyl-2,3,4,5-tetrahydro-1,4-benzoxazepin-7-yl}[1,3]thiazolo[5,4-b]pyridin-2-amine]	≤ 100 nM
Cc1cc(-c2cnc3nc[nH]c3c2)cc2c1OCCN(c1nc(N)nc(C)c1C(C)C)C2 [Compound 163, 4-[7-(1H-imidazo[4,5-b]pyridin-6-yl)-9-methyl-2,3-dihydro-1,4-benzoxazepin-4(5H)-yl]-6-methyl-5-(1-methylethyl)pyrimidin-2-amine]	≤ 100 nM
Cc1nc2ncc(-c3cc(C)c4c(c3)CN(c3nc(CNCC(F)F)nc(C)c3C(C)C)CCO4)cc2[nH]1 [Compound 166, 2,2-difluoro-N-({4-methyl-5-(1-methylethyl)-6-[9-methyl-7-(2-methyl-1H-imidazo[4,5-b]pyridin-6-yl)-2,3-dihydro-1,4-benzoxazepin-4(5H)-yl]pyrimidin-2-yl}methyl)ethanamine]	≤ 100 nM
Cc1nc2cc(-c3cc(C)c4c(c3)CN(c3nc(N)nc(C)c3C(C)C)CCO4)cnc2[nH]1 [Compound 162, 4-methyl-5-(1-methylethyl)-6-[9-methyl-7-(2-methyl-3H-imidazo[4,5-b]pyridin-6-yl)-2,3-dihydro-1,4-benzoxazepin-4(5H)-yl]pyrimidin-2-amine]	≤ 100 nM
CCc1c(C)nc(CN(C)C)nc1N1CCOc2c(C)cc(-c3cnc4sc(N)nc4c3)cc2C1 [Compound 67, 6-(4-{2-[(dimethylamino)methyl]-5-ethyl-6-methylpyrimidin-4-yl}-9-methyl-2,3,4,5-tetrahydro-1,4-benzoxazepin-7-yl)[1,3]thiazolo[5,4-b]pyridin-2-amine]	≤ 100 nM
Cc1cc(-c2cnc3sc(N)nc3c2)cc2c1OCCN(c1nc(CN(C)C)nc(Cl)c1C(C)C)C2 [Compound 63, 6-(4-{6-chloro-2-[(dimethylamino)methyl]-5-(1-methylethyl)pyrimidin-4-yl}-9-methyl-2,3,4,5-tetrahydro-1,4-benzoxazepin-7-yl)[1,3]thiazolo[5,4-b]pyridin-2-amine]	≤ 100 nM
Cc1cc(-c2cnc(N)s2)cc2c1OCCN(c1nc(N)nc(C)c1C(C)C)C2 [Compound 84, 4-[7-(2-amino-1,3-thiazol-5-yl)-9-methyl-2,3-dihydro-1,4-benzoxazepin-4(5H)-yl]-6-methyl-5-(1-methylethyl)pyrimidin-2-amine]	≤ 100 nM
COc1cc(-c2cnc3sc(N)nc3c2)cc2c1OCCN(c1nc(N)nc(C)c1C(C)C)C2 [Compound 140, 6-{4-[2-amino-6-methyl-5-(1-methylethyl)pyrimidin-4-yl]-9-(methyloxy)-2,3,4,5-tetrahydro-1,4-benzoxazepin-7-yl}[1,3]thiazolo[5,4-b]pyridin-2-amine]	100 to 500 nM
Cc1cc(-c2cnc(N)nc2)cc2c1OCCN(c1nc(N)nc(C)c1C(C)C)C2 [Compound 81, 4-[7-(2-aminopyrimidin-5-yl)-9-methyl-2,3-dihydro-1,4-benzoxazepin-4(5H)-yl]-6-methyl-5-(1-methylethyl)pyrimidin-2-amine]	100 to 500 nM
CCc1nc(N)nc(N2CCOc3c(C)cc(-c4cnc5sc(N)nc5c4)cc3C2)c1C(C)C [Compound 56, 6-{4-[2-amino-6-ethyl-5-(1-methylethyl)pyrimidin-4-yl]-9-methyl-2,3,4,5-tetrahydro-1,4-benzoxazepin-7-yl}[1,3]thiazolo[5,4-b]pyridin-2-amine]	≤ 100 nM
Cc1cc(-c2cnc3sc(N)nc3c2)cc2c1OCCN(c1ncnc(C)c1C(C)C)C2 [Compound 87, 6-{9-methyl-4-[6-methyl-5-(1-methylethyl)pyrimidin-4-yl]-2,3,4,5-tetrahydro-1,4-benzoxazepin-7-yl}[1,3]thiazolo[5,4-b]pyridin-2-amine]	≤ 100 nM
Cc1cc(-c2ccncc2)cc2c1OCCN(c1nc(N)nc(C)c1C(C)C)C2 [Compound 75]	100 to 500 nM
Cc1cc(-c2cnc3sc(N)nc3c2)cc2c1OCCN(c1nc(CN3CCC(F)(F)C3)nc(C)c1C(C)C)C2 [Compound 91, 6-(4-{2-[(3,3-difluoropyrrolidin-1-yl)methyl]-6-methyl-5-(1-methylethyl)pyrimidin-4-yl}-9-methyl-2,3,4,5-tetrahydro-1,4-benzoxazepin-7-yl)[1,3]thiazolo[5,4-b]pyridin-2-amine]	≤ 100 nM
Cc1cc(-c2cnc3nc[nH]c3c2)cc2c1OCCN(c1nc(CN(C)CC(F)F)nc(C)c1C(C)C)C2 [Compound 167, 2,2-difluoro-N-({4-[7-(1H-imidazo[4,5-b]pyridin-6-yl)-9-methyl-2,3-dihydro-1,4-benzoxazepin-4(5H)-yl]-6-methyl-5-(1-methylethyl)pyrimidin-2-yl}methyl)-N-methylethanamine]	100 to 500 nM
Cc1cc(-c2ccc(N)nc2)cc2c1OCCN(c1nc(N)nc(C)c1C(C)C)C2 [Compound 24, 4-[7-(6-aminopyridin-3-yl)-9-methyl-2,3-dihydro-1,4-benzoxazepin-4(5H)-yl]-6-methyl-5-(1-methylethyl)pyrimidin-2-amine]	100 to 500 nM
Cc1ncc(C(C)C)c(N2CCOc3c(C)cc(-c4nnc(N)s4)cc3C2)n1 [Compound 175, 5-{9-methyl-4-[2-methyl-5-(1-methylethyl)pyrimidin-4-yl]-2,3,4,5-tetrahydro-1,4-benzoxazepin-7-yl}-1,3,4-thiadiazol-2-amine]	≤ 100 nM
Cc1cc(-c2cnc3sc(N)nc3c2)cc2c1OCCN(c1nc(CN(C)C)ncc1CC(F)(F)F)C2 [Compound 60, 6-(4-{2-[(dimethylamino)methyl]-5-(2,2,2-trifluoroethyl)pyrimidin-4-yl}-9-methyl-2,3,4,5-tetrahydro-1,4-benzoxazepin-7-yl)[1,3]thiazolo[5,4-b]pyridin-2-amine]	100 to 500 nM
COCCOc1nc(C)c(C(C)C)c(N2CCOc3c(C)cc(-c4cnc5sc(N)nc5c4)cc3C2)n1 [Compound 154, 6-{9-methyl-4-[6-methyl-5-(1-methylethyl)-2-{[2-(methyloxy)ethyl]oxy}pyrimidin-4-yl]-2,3,4,5-tetrahydro-1,4-benzoxazepin-7-yl}[1,3]thiazolo[5,4-b]pyridin-2-amine]	≤ 100 nM
CCc1nc(CN(C)C)nc(N2CCOc3c(C)cc(-c4cnc5sc(N)nc5c4)cc3C2)c1C(C)C [Compound 88, 6-(4-{2-[(dimethylamino)methyl]-6-ethyl-5-(1-methylethyl)pyrimidin-4-yl}-9-methyl-2,3,4,5-tetrahydro-1,4-benzoxazepin-7-yl)[1,3]thiazolo[5,4-b]pyridin-2-amine]	≤ 100 nM
